The values below come from EPA's ToxRefDB 2.

For orientation: LOAEL means the lowest tested level that showed an adverse finding. Broadly, the NOAEL is the highest dose or exposure tested at which no adverse effect was seen.

Structures are written as SMILES.

Data set [1] relates to mouse. Particulars: Carcinogenicity, cd1, Oral, Feed, dose end: 18 month, group: systemic.
The subject of data set [2] is rat. Particulars: Multigenerational reproductive toxicity study, Other, Oral, Feed, dose end: 2 generation.
The test system of data set [3] is dog. Particulars: Subchronic oral toxicity in nonrodent, beagle, Capsule, dose end: 13 week, group: systemic.
The test system of data set [4] is dog. The settings on record: Chronic toxicity, beagle, Oral, Capsule, dose end: 52 week, group: systemic.
Data set [5] has as its system rat. The settings on record: Subchronic oral toxicity in rodents, fischer, Feed, dose end: 13 week, group: systemic, systemic / organ weight / adrenal gland / nos + systemic / organ weight / kidney / nos + systemic / organ weight / liver / nos + systemic / ….
In data set [6] the test system is mouse. Particulars: Subchronic oral toxicity in rodents, cd1, Feed, dose end: 13 week, group: systemic.
Data set [7] has as its system rat. The settings on record: Prenatal developmental toxicity study, sprague dawley, Oral, Gavage/Intubation, dose end: 16 GD.
A further data set concerns rabbit. The settings on record: Prenatal developmental toxicity study, new zealand white, Oral, Gavage/Intubation, dose end: 19 GD, group: maternal.
Data set [8] relates to dog. Particulars: Chronic toxicity; beagle; Oral; Feed; dose end: 12 month; group: systemic; systemic / clinical chemistry / sodium / sodium + systemic / in life observation / body weight / body weight + systemic / in life ….
The subject of data set [9] is rat. Particulars: Combined chronic toxicity/carcinogenicity; sprague dawley; Oral; Feed; dose end: 24 month; group: systemic; systemic / clinical chemistry / sodium / sodium.
For data set [10], the system named is mouse. The settings on record: Subchronic oral toxicity in rodents, b6c3f1, Water, dose end: 30 day, group: systemic.
[11] abbreviates: systemic / organ weight / liver / relative to body weight.
Setting [12] is: systemic / organ weight / liver / relative to body weight + systemic / organ weight / liver / absolute.
[13] abbreviates: group: offspring, systemic / in life observation / body weight / offspring (pup) weight + systemic / pathology gross / liver / discolored + systemic / ….
Setting [14] is: group: parental, systemic / organ weight / liver / relative to body weight.
[15] abbreviates: group: parental, systemic / organ weight / liver / relative to body weight + systemic / in life observation / body weight / body weight + systemic / in life ….
The mark [16] stands for this setting: systemic / clinical chemistry / alkaline phosphatase (alp/alk) / alkaline phosphatase (alp/alk) + systemic / pathology gross / liver / ….
Where [17] appears, read: systemic / organ weight / prostate / relative to body weight.
Setting [18] is: systemic / pathology microscopic / liver / pigmentation + systemic / clinical chemistry / alkaline phosphatase (alp/alk) / alkaline ….
[19] abbreviates: systemic / pathology microscopic / liver / hypertrophy.
[20] abbreviates: systemic / pathology microscopic / liver / hypertrophy + systemic / clinical chemistry / alanine aminotransferase (alt/sgpt) / alanine ….
Setting [21] is: group: developmental, developmental / developmental malformation / bone / incomplete ossification + systemic / in life observation / body weight / fetal weight + ….
The mark [22] stands for this setting: group: maternal, systemic / in life observation / body weight / body weight + systemic / in life observation / body weight / body weight gain + systemic / in….
Where [23] appears, read: systemic / organ weight / liver / relative to body weight + reproductive / reproductive performance / aborted / aborted + reproductive / ….
Setting [24] is: systemic / clinical chemistry / triglycerides / triglycerides.
[25] abbreviates: systemic / organ weight / kidney / absolute + systemic / organ weight / kidney / relative to body weight + systemic / organ weight / liver….

Take `CSC(=O)c1c(C(F)F)nc(C(F)(F)F)c(C(=O)SC)c1CC(C)C` [Dithiopyr]: the LEL in the data set with mouse [1] (setting [11]) came out at 3.27 mg/kg/day; with rat [2] (setting [13]), 19.9 mg/kg/day; in the data set on rat [2] (setting [14]), 16.4 mg/kg/day; with dog [3] (setting [17]), 1 mg/kg/day; in the data set with dog [4] (setting [18]), 5 mg/kg/day; in the data set on rat [5], 6.62 mg/kg/day. The molecule also returned an LEL in the data set with mouse [6] (setting [19]) of 11.8 mg/kg/day. Besides, the LOAEL in the data set on mouse [1] (setting [11]) is 3.27 mg/kg/day; in the data set with rat [2] (setting [13]), > 218 mg/kg/day; in the data set with rat [2] (setting [14]), 16.4 mg/kg/day; in the data set with dog [3] (setting [16]), 10 mg/kg/day; in the data set on dog [4] (systemic / pathology microscopic / liver / pigmentation) it was 5 mg/kg/day; in the data set on rat [5], 6.62 mg/kg/day. Besides, the LOAEL with mouse [6] (setting [19]) was 11.8 mg/kg/day. The NEL was 0.31 mg/kg/day with mouse [1] (setting [12]); 2 mg/kg/day in the data set on rat [2] (setting [13]); 1.7 mg/kg/day with rat [2] (setting [15]); < 1 mg/kg/day in the data set on dog [3] (setting [17]); 0.5 mg/kg/day in the data set on dog [4] (setting [18]); 0.662 mg/kg/day in the data set on rat [5]. The NEL in the data set on mouse [6] (setting [20]) was 1.16 mg/kg/day. Besides, the NOAEL in the data set on mouse [1] (setting [12]) is 0.31 mg/kg/day; in the data set on rat [2] (setting [13]) it was ≥ 218 mg/kg/day; in the data set with rat [2] (setting [15]), 1.7 mg/kg/day; in the data set on dog [3] (setting [16]), 1 mg/kg/day; in the data set with dog [4] (setting [18]), 0.5 mg/kg/day; in the data set with rat [5] it was 0.662 mg/kg/day. Further, in the data set on mouse [6] (setting [20]), the NOAEL was found to be 1.16 mg/kg/day.

Consider `CCOc1nc(NC)nc(NC(=O)NS(=O)(=O)c2ccccc2C(=O)OC)n1` [Ethametsulfuron-methyl], for which the LEL in the data set with rat [7] (setting [21]) was 4000 mg/kg/day; in the data set with rat [7] (setting [22]), 4000 mg/kg/day; in the data set on rabbit (setting [11]), 1000 mg/kg/day; in the data set with dog [8], 478 mg/kg/day; in the data set with rat [9], 210 mg/kg/day. The LOAEL in the data set on rat [7] (setting [21]) is 4000 mg/kg/day; with rat [7] (setting [22]) it was 4000 mg/kg/day; in the data set on rabbit (setting [11]) it was 1000 mg/kg/day; in the data set with dog [8], 478 mg/kg/day; in the data set on rat [9] it was > 210 mg/kg/day. The NEL in the data set on rat [7] (setting [21]) was found to be 1000 mg/kg/day; in the data set with rat [7] (setting [22]) it was 1000 mg/kg/day; in the data set with rabbit (setting [23]), 250 mg/kg/day; with dog [8] it was 87.3 mg/kg/day; with rat [9], 21 mg/kg/day. In addition, the NOAEL in the data set with rat [7] (setting [21]) is 1000 mg/kg/day; in the data set on rat [7] (setting [22]) it was 1000 mg/kg/day; with rabbit (setting [23]), 250 mg/kg/day; in the data set on dog [8], 87.3 mg/kg/day; in the data set on rat [9], ≥ 210 mg/kg/day.

In the case of `O=[As]([O-])([O-])[O-].[Na+].[Na+].[Na+]` [Trisodium arsenate], in the data set with mouse [10] (setting [24]), the LEL amounted to 0.00625 mg/kg/day and the NEL was < 0.00625 mg/kg/day. For the same molecule, in the data set with mouse [10] (setting [25]), the LOAEL was found to be 0.625 mg/kg/day and the NOAEL amounted to 0.00625 mg/kg/day.
